One assay has as its system MRSA-4. Put plainly: MIC, broth microdilution (CLSI). It counts as cell-based, Methicillin-resistant S. aureus. To be noted: Staphylococcus aureus. The source says:
(§1) Staphylococcus aureus ATCC25923 and Escherichia coli ATCC25922 were obtained from the American Type Culture Collection (ATCC, Manassas, VA, USA). The Methicillin-resistant S. aureus (MRSA) clinical isolate MRSA-4, previously confirmed as mecA-positive and characterized for its antibiotic resistance profile ([Sun et al., 2023]), was used in this study. Staphylococcus epidermidis (GDMCC 1.143), Enterococcus faecalis (GDMCC 1.164), and Salmonella enterica subsp. enterica (GDMCC 1.1114) were obtained from the Guangdong Microbial Culture Collection Center (GDMCC, Guangzhou, China). The Pseudomonas aeruginosa PA14 strain was kindly provided by Professor Min Wu (Southwest Medical University, China). All bacterial strains were routinely cultured in Mueller-Hinton broth (MHB) or Luria-Bertani (LB) broth medium at 37°C with shaking at 200 rpm. Vancomycin was purchased from Solarbio Science & Technology Co., Ltd. (Beijing, China), and oxacillin was obtained from Taiji Group Hengsheng Pharmaceutical Co., Ltd. (Chengdu, China). The polyclonal rabbit primary anti-body to FtsZ was purchased from Abcam PLC (Cambridge, UK). Alexa488-conjugated goat anti-rabbit IgG was purchased from ZSGB-BIO Biotechnology (Beijing, China). DAPI staining solution was purchased from Beyotime Biotechnology (Shanghai, China).
(§2) The minimum inhibitory concentrations (MICs) of the test compounds (AA, MA, and UA) were determined using the standard broth microdilution method in accordance with the Clinical and Laboratory Standards Institute (CLSI) guidelines ([Humphries et al., 2021]). Bacteria were cultured in MHB or LB broth at 37°C with shaking (200 rpm) to the logarithmic phase, then diluted to a final density of 1 × 10^6 CFU/mL. Test compounds (dissolved in DMSO) and positive controls (vancomycin and oxacillin) were diluted in MHB and serially twofold diluted in 96-well plates. Each well was inoculated with 100 μL of bacterial suspension (1 × 10^6 CFU/mL), yielding a final bacterial density of 5 × 10^5 CFU/mL and a total volume of 200 μL. The final concentrations tested were 128 to 1 μg/mL for AA, MA, and UA; 16 to 0.5 μg/mL for vancomycin; and 64 to 0.0625 μg/mL for oxacillin. DMSO was used as a solvent control. Plates were incubated statically at 37°C for 18–24 h. After incubation, the OD600 was measured using a microplate reader (SpectraMax i3x, Molecular Devices, CA, USA). The MIC was defined as the lowest compound concentration that caused ≥ 90% inhibition of bacterial growth compared to the drug-free growth control. All tests were performed in three independent biological replicates.
(§3) Following the isolation and identification of AA, MA, and UA from ECPL, we evaluated their antibacterial activity and spectrum. The MICs of the compounds were determined against MRSA-4, S. aureus ATCC25923, S. epidermidis, and E. faecalis (Gram-positive), as well as P. aeruginosa PA14, E. coli ATCC25922, and S. enterica subsp. Enterica (Gram-negative) using the standard broth microdilution method in accordance with CLSI guidelines ([Humphries et al., 2021]).
Background: Dilution methods test growth across graded concentrations, often in twofold steps.

Assay [1] has as its system S. enterica subsp. Enterica (1.1114). The assay can be described thus: MIC, broth microdilution (CLSI). It counts as cell-based, Salmonella enterica subsp. enterica. The settings on record: Salmonella enterica; S. enterica subsp. Enterica (1.1114); ≥ 90% growth inhibition, 18–24 h; read-out: MIC.
Text: as §1, §2, §3

For a further assay, the target named is T1, SaFtsZ (Staphylococcus aureus, UniProt P0A031).
T1 construct: purchased Cytoskeleton, Inc. FTZ02
T1 sequence (P0A031 1-390): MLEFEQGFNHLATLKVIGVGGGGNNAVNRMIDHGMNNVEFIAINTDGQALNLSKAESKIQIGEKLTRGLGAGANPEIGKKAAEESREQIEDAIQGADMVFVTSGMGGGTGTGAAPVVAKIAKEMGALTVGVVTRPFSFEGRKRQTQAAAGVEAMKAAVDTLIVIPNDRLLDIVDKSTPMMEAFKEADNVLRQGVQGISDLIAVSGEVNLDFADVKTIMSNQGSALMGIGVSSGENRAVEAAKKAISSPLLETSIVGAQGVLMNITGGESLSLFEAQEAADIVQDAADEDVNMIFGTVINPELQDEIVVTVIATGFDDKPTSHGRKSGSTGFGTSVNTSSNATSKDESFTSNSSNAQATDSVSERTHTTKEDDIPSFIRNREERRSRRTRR
Put plainly: Surface plasmon resonance analysis. It counts as binding, S. aureus. To be noted: SPR, immobilized SaFtsZ, 25°C, steady-state. On the procedure: SPR analysis was performed using a Biacore X100 system (Cytiva, USA) equipped with a CM5 sensor chip at 25°C. SaFtsZ protein was immobilized onto the chip surface via standard amine coupling. Briefly, flow cells 1 (Fc1) and 2 (Fc2) were activated with a 1:1 mixture of 0.4 M EDC and 0.1 M NHS for 7 min. The SaFtsZ protein was diluted to 40 μg/mL in 0.1 M sodium acetate buffer (pH 4.0) and immobilized onto Fc2. The response units (RU) reaching an immobilization level of approximately 4693.2. Unreacted sites in both flow cells were blocked with ethanolamine for 7 min. Subsequently, analyte solutions containing test compounds at varying concentrations were injected over both flow cells, and binding responses were monitored in real time. Data analysis was performed using Biacore Evaluation Software v2.0.2.
We first performed SPR spectroscopy to experimentally measure the binding affinities of AA, MA, and UA for immobilized SaFtsZ protein.
Background: Surface plasmon resonance follows binding to a sensor surface in real time, without labels.

Setting [2] is: MRSA-4, ≥ 90% growth inhibition, 18–24 h, read-out: MIC.
Setting [3] is: read-out: equilibrium dissociation constant (Kd).

Values after ≈ are worked out from the molar mass of the structure shown. Values joined by “and” are separate entries in the source; they are usually repeats but may differ in a detail not shown here. Identical values can stand only once. Like-named read-outs stand apart in the source and are kept apart here.

On to `C[C@H]1[C@H](C)CC[C@]2(C(=O)O)CC[C@]3(C)C(=CC[C@@H]4[C@@]5(C)CC[C@H](O)C(C)(C)[C@@H]5CC[C@]43C)[C@H]12` [UA, ursolic acid], for which the minimal inhibitory concentration (MIC) (in general, the smallest concentration in the dilution series that meets the test's criterion for growth inhibition) is 8 µg/mL (≈ 17.5 µM) in the assay on MRSA-4 (setting [2]) and greater than 128 µg/mL in assay [1]. Further, at SaFtsZ (setting [3]), the Kd (as a rule, a measure of binding affinity in units of concentration) is 700 nM and 663 nM.
In the case of `CC1(C)CC[C@]2(C(=O)O)CC[C@]3(C)C(=CC[C@@H]4[C@@]5(C)C[C@@H](O)[C@H](O)C(C)(C)[C@@H]5CC[C@]43C)[C@@H]2C1` [MA, maslinic acid], the MIC is 32 µg/mL (≈ 67.7 µM) in the assay with MRSA-4 (MRSA) and greater than 128 µg/mL in assay [1]. Further, the Kd at SaFtsZ (setting [3]) was 9800 nM and 9760 nM.
For the molecule `C[C@H]1[C@H](C)CC[C@]2(C(=O)O)CC[C@]3(C)C(=CC[C@@H]4[C@@]5(C)C[C@@H](O)[C@H](O)[C@@](C)(CO)[C@@H]5CC[C@]43C)[C@H]12` [AA, asiatic acid], the MIC in the assay with MRSA-4 (setting [2]) is 32 µg/mL (≈ 65.5 µM); in assay [1], greater than 128 µg/mL. On SaFtsZ (equilibrium dissociation constant (Kd)), this molecule displayed a Kd of 2400 nM.
